Assay results taken from US20250381110A1, “SKIN CARE COMPOSITION AND METHOD OF USING THE SAME” (THE PROCTER & GAMBLE COMPANY, priority 2024, published 2025).
Where a name gives a salt, the structure may show the parent alone.

System: p62-dependent mitophagy
Assay: Luciferase-p62 assay (Fluc-p62 clearance) in mouse embryonic fibroblasts
Assay type: cell-based
Conditions: for Mean Luminescence: Luciferase-p62 assay, mouse embryonic fibroblasts (MEFs), compounds at 10 μM; for % Activity over baseline: percentage of Luciferase-p62 clearance relative to baseline (mean luminescence in the absence of doxycycline induction); for % Activity over baseline / % Activity relative to Rapamycin: MEFs, 10 μM; for % Activity relative to Rapamycin: percentage of activity relative to rapamycin tested in the same experiment at the same concentration
Method in brief: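 MEFs with doxycycline-inducible Fluc-p62; after induction, doxycycline removed and cells treated 48 h with compounds at 10 μM. Fluc-p62 clearance, taken as mitophagy, read by ONE-Glo+Tox luciferase with viability. Vehicle (DMSO) as negative control; activity also expressed relative to rapamycin.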

| Structure (SMILES) | Mean Luminescence | % Activity over baseline [%] | % Activity relative to Rapamycin [%] |
| --- | --- | --- | --- |
| COc1cc2ncnc(Nc3ccc(F)c(Cl)c3)c2cc1OCCCN1CCOCC1 [Gefitinib (ZD1839)] | 960.31 | 40.65 | 73.25 |
| C[C@@H]1C(=O)O[C@H]2C[C@@]34[C@H]5C[C@@H](C(C)(C)C)[C@]36[C@@H](OC(=O)[C@@H]6O)O[C@@]4(C(=O)O5)[C@]21O [Ginkgolide A] | 977.84 | 39.57 | 71.29 |
| CC(C)=CCC[C@](C)(O[C@@H]1O[C@H](CO)[C@@H](O)[C@H](O)[C@H]1O)[C@H]1CC[C@]2(C)[C@@H]1[C@H](O)C[C@@H]1[C@@]3(C)CC[C@H](O)C(C)(C)[C@@H]3[C@@H](O[C@@H]3O[C@H](CO)[C@@H](O)[C@H](O)[C@H]3O)C[C@]12C [Ginsenoside Rg1] | 947.81 | 41.42 | 74.64 |
| Nc1nc2c(ncn2[C@@H]2O[C@H](COP(=O)([O-])[O-])[C@@H](O)[C@H]2O)c(=O)[nH]1.[Na+].[Na+] [Guanosine 5′-monophosphate (sodium salt)] | 977.65 | 39.58 | 71.31 |
| COc1cc(CC(=O)O)ccc1O [Homovanillic acid] | 908.95 | 43.83 | 78.96 |
| C[C@]12CCC(=O)C=C1CC[C@@H]1[C@@H]2[C@@H](O)C[C@@]2(C)[C@H]1CC[C@]2(O)C(=O)CO [Hydrocortisone] | 801.04 | 50.50 | 90.98 |
| CC[C@H]1CN2CC[C@H]1C[C@@H]2[C@@H](O)c1ccnc2ccc(OC)cc12 [Hydroquinidine] | 958.47 | 40.77 | 73.45 |
| OCCc1ccc(O)c(O)c1 [Hydroxytyrosol] | 839.13 | 48.14 | 86.74 |
| CC1=C[C@]23C(=O)[C@@H](C=C(CO)[C@@H](O)[C@]2(O)[C@H]1O)[C@H]1[C@@H](C[C@H]3C)C1(C)C [Ingenol] | 930.73 | 42.48 | 76.54 |
| CC(C)CC(=O)NCC(=O)O [Isovaleroylglycine] | 776.88 | 51.99 | 93.67 |
| C=C(CC(=O)O)C(=O)O [Itaconic acid] | 640.97 | 60.39 | 108.80 |
| CCC(C)n1ncn(-c2ccc(N3CCN(c4ccc(OCC5COC(Cn6cncn6)(c6ccc(Cl)cc6Cl)O5)cc4)CC3)cc2)c1=O (stereo not drawn) [Itraconazole] | 450.47 | 72.16 | 130.02 |
| O=C1C=CC(=O)c2c(O)cccc21 [Juglone] | 894.51 | 44.72 | 80.57 |
| CC(C)C(=O)C(=O)O [Ketoisovaleric acid] | 921.08 | 43.08 | 77.61 |
| CC[C@H](N)C(=O)O [L(+)-2-Aminobutyric acid] | 981.68 | 39.33 | 70.87 |
| CC(=O)O[C@H](CC(=O)O)C[N+](C)(C)C.[Cl-] [L-Acetylcarnitine (hydrochloride)] | 581.20 | 64.08 | 115.46 |
| CC(C)=CCC[C@@H](C)[C@H]1CC[C@@]2(C)C3=C(CC[C@]12C)[C@@]1(C)CC[C@H](O)C(C)(C)[C@@H]1CC3 [Lanosterol] | 957.65 | 40.82 | 73.54 |
| CS(=O)(=O)CCNCc1ccc(-c2ccc3ncnc(Nc4ccc(OCc5cccc(F)c5)c(Cl)c4)c3c2)o1 [Lapatinib Ditosylate] | 578.14 | 64.27 | 115.80 |
| N[C@@H](Cc1cc(I)c(Oc2cc(I)c(O)c(I)c2)c(I)c1)C(=O)O [Levothyroxine sodium] | 974.14 | 39.80 | 71.71 |
| CC(=O)CCC(=O)O [Levulinic acid] | 771.58 | 52.32 | 94.26 |
| COc1cc2c(cc1OC)[C@@H](Cc1ccc(O)c(Oc3cc4c(cc3OC)CCN(C)[C@@H]4Cc3ccc(O)cc3)c1)N(C)CC2 [Liensinine] | 923.21 | 42.94 | 77.38 |
| CC1(C)O[C@H]2CC(=O)OC[C@]23[C@H]2CC[C@@]4(C)[C@H](c5ccoc5)OC(=O)[C@H]5O[C@]54[C@]2(C)C(=O)C[C@@H]13 [Limonin] | 753.03 | 53.46 | 96.33 |

| Structure (SMILES) | Mean Luminescence | % Activity over baseline [%] | % Activity relative to Rapamycin [%] |
| --- | --- | --- | --- |
| CCOC(=O)O[C@]1(C(=O)OCCl)CC[C@H]2[C@@H]3CCC4=CC(=O)C=C[C@]4(C)[C@H]3[C@@H](O)C[C@@]21C [Loteprednol etabonate] | 214.82 | 86.72 | 156.26 |
| C=CCc1ccc(O)c(-c2cc(CC=C)ccc2O)c1 [Magnolol] | 950.75 | 41.24 | 74.31 |
| O=C(O)CC(O)C(=O)O (stereo not drawn) [Malic acid] | 962.28 | 40.53 | 73.03 |
| O=C(O)CC(=O)O [Malonic acid] | 865.42 | 46.52 | 83.81 |
| CCOC(=O)c1c(C)n(C)c2ccc(O)cc12 [Mecarbinate] | 799.96 | 50.56 | 91.10 |
| CC(=O)O[C@]1(C(C)=O)CC[C@H]2[C@@H]3C[C@H](C)C4=CC(=O)CC[C@]4(C)[C@H]3CC[C@@]21C [Medroxyprogesterone acetate] | 800.04 | 50.56 | 91.09 |
| Nc1nc(N)nc(N)n1 [Melamine] | 960.76 | 40.62 | 73.19 |
| OC[C@H]1O[C@H](OCC2O[C@@H](O)[C@H](O)[C@@H](O)[C@@H]2O)[C@H](O)[C@@H](O)[C@H]1O (stereo partly drawn) [Melibiose] | 715.78 | 55.76 | 100.47 |
| CN1CCN2c3ccccc3Cc3ccccc3C2C1 (stereo not drawn) [Mianserin HCl] | 960.23 | 40.66 | 73.25 |
| Clc1ccc(COC(Cn2ccnc2)c2ccc(Cl)cc2Cl)c(Cl)c1 (stereo not drawn) [Miconazole Nitrate] | 704.35 | 56.47 | 101.75 |
| Clc1ccc(COC(Cn2ccnc2)c2ccc(Cl)cc2Cl)c(Cl)c1 (stereo not drawn) [Miconazole] | 297.40 | 81.62 | 147.06 |
| CO[C@@]12[C@H](COC(N)=O)C3=C(C(=O)C(C)=C(N)C3=O)N1C[C@@H]1N[C@@H]12 [Mitomycin C] | 867.02 | 46.42 | 83.63 |
| COC(=O)c1c2c(c3ccccc3c1O)OC(C)(C)C=C2 [Mollugin] | 709.65 | 56.14 | 101.16 |
| CO/N=C1\C[C@]2(C[C@@H]3C[C@@H](C/C=C(\C)C[C@@H](C)/C=C/C=C4\CO[C@@H]5[C@H](O)C(C)=C[C@@H](C(=O)O3)[C@]45O)O2)O[C@H](/C(C)=C/C(C)C)[C@H]1C [Moxidectin] | 476.19 | 70.57 | 127.15 |
| C[C@@H]1CCCCCCCCCCCCC(=O)C1 [Muscone] | 869.43 | 46.27 | 83.36 |
| COc1c(C)c2c(c(O)c1C/C=C(\C)CCC(=O)OCCN1CCOCC1)C(=O)OC2 [Mycophenolate Mofetil] | 594.21 | 63.28 | 114.01 |
| COc1c(C)c2c(c(O)c1C/C=C(\C)CCC(=O)O)C(=O)OC2 [Mycophenolic acid] | 821.72 | 49.22 | 88.68 |
| CC(=O)NCCc1c[nH]c2ccc(O)cc12 [N-Acetylserotonin] | 978.08 | 39.55 | 71.27 |
| CCN1C(=O)C=CC1=O [N-Ethylmaleimide (NEM)] | 668.28 | 58.70 | 105.76 |
| CO[C@]12C[C@@H](COC(=O)c3cncc(Br)c3)CN(C)[C@@H]1Cc1cn(C)c3cccc2c13 [Nicergoline] | 764.49 | 52.75 | 95.05 |
| CC(Cc1ccc(O)c(O)c1)C(C)Cc1ccc(O)c(O)c1 (stereo not drawn) [Nordihydroguaiaretic acid] | 964.84 | 40.37 | 72.74 |
| CO[C@H]1C[C@H](O[C@H]2CC[C@@]3(C)[C@H](CC[C@@H]4[C@@H]3CC[C@]3(C)[C@@H](C5=CC(=O)OC5)[C@@H](OC(C)=O)C[C@]43O)C2)O[C@@H](C)[C@@H]1O [Oleandrin] | 766.18 | 52.65 | 94.86 |
